The record followed here is patent US20090270350A1, “Pyridinone Pyrazole Urea and Pyrimidinone Pyrazole Urea Derivatives” (PFIZER INC., priority 2006, published 2009).

The structures appear in SMILES notation.

In the case of `COC(=O)c1ccc(C)c(-n2c(C)cc(OCc3ccccc3CNC(=O)Nc3cc(C(C)(C)C)nn3-c3ccc(Cl)c(O)c3)c(Cl)c2=O)c1` [Example 138, 3-[4-(2-{3-[5-tert-butyl-2-(4-chloro-3-hydroxy-phenyl)-2H-pyrazol-3-yl]-ureidomethyl}-benzyloxy)-3-chloro-6-methyl-2-oxo-2H-pyridin-1-yl]-4-methyl-benzoic acid methyl ester], the melting point (in general, the temperature, or range, at which the solid turns liquid) fell in the range of 193 to 195 °C.

As to `COC(=O)c1ccc(C)c(-n2c(C)cc(OCc3ccc(F)cc3CNC(=O)Nc3cc(C(C)(C)C)nn3-c3ccc(O)c(Cl)c3)c(Cl)c2=O)c1` [Example 140, 3-[4-(2-{3-[5-tert-butyl-2-(3-chloro-4-hydroxy-phenyl)-2H-pyrazol-3-yl]-ureidomethyl}-4-fluoro-benzyloxy)-3-chloro-6-methyl-2-oxo-2H-pyridin-1-yl]-4-methyl-benzoic acid methyl ester], the melting point was 197 to 200 °C. `CNC(=O)c1ccc(C)c(-n2c(C)cc(OCc3ccccc3CNC(=O)Nc3cc(C(C)(C)C)nn3-c3ccc(O)c(Cl)c3)c(Cl)c2=O)c1` [Example 153, 3-[4-(2-{3-[5-tert-butyl-2-(3-chloro-4-hydroxy-phenyl)-2H-pyrazol-3-yl]-ureidomethyl}-benzyloxy)-3-chloro-6-methyl-2-oxo-2H-pyridin-1-yl]-4,N-dimethyl-benzamide] returned a melting point of 201 to 203 °C. For the compound `Cc1ccc(C(=O)NCCO)cc1-n1c(C)cc(OCc2ccccc2CNC(=O)Nc2cc(C(C)(C)C)nn2-c2ccc(O)c(Cl)c2)c(Cl)c1=O` [Example 154, 3-[4-(2-{3-[5-tert-butyl-2-(3-chloro-4-hydroxy-phenyl)-2H-pyrazol-3-yl]-ureidomethyl}-benzyloxy)-3-chloro-6-methyl-2-oxo-2H-pyridin-1-yl]-N-(2-hydroxy-ethyl)-4-methyl-benzamide], the melting point lay in the range of 195 to 196 °C. `COCCNC(=O)c1ccc(C)c(-n2c(C)cc(OCc3ccccc3CNC(=O)Nc3cc(C(C)(C)C)nn3-c3ccc(O)c(Cl)c3)c(Cl)c2=O)c1` [Example 155, 3-[4-(2-{3-[5-tert-butyl-2-(3-chloro-4-hydroxy-phenyl)-2H-pyrazol-3-yl]-ureidomethyl}-benzyloxy)-3-chloro-6-methyl-2-oxo-2H-pyridin-1-yl]-N-(2-methoxy-ethyl)-4-methyl-benzamide]: the melting point was in the range of 179 to 180 °C. As for `Cc1ccc(C(=O)NCC(O)CO)cc1-n1c(C)cc(OCc2ccccc2CNC(=O)Nc2cc(C(C)(C)C)nn2-c2ccc(O)c(Cl)c2)c(Cl)c1=O` (stereo not drawn) [Example 157, 3-[4-(2-{3-[5-tert-butyl-2-(3-chloro-4-hydroxy-phenyl)-2H-pyrazol-3-yl]-ureidomethyl}-benzyloxy)-3-chloro-6-methyl-2-oxo-2H-pyridin-1-yl]-N-(2,3-dihydroxy-propyl)-4-methyl-benzamide], the figure is 173 to 175 °C. `Cc1ccc(C(=O)NCCN(C)C)cc1-n1c(C)cc(OCc2ccccc2CNC(=O)Nc2cc(C(C)(C)C)nn2-c2ccc(O)c(Cl)c2)c(Cl)c1=O` [Example 158, 3-[4-(2-{3-[5-tert-butyl-2-(3-chloro-4-hydroxy-phenyl)-2H-pyrazol-3-yl]-ureidomethyl}-benzyloxy)-3-chloro-6-methyl-2-oxo-2H-pyridin-1-yl]-N-(2-dimethylamino-ethyl)-4-methyl-benzamide] returned a melting point of 181 to 182 °C.

As for `Cc1ccc(C(=O)NCC(N)=O)cc1-n1c(C)cc(OCc2ccccc2CNC(=O)Nc2cc(C(C)(C)C)nn2-c2ccc(O)c(Cl)c2)c(Cl)c1=O` [Example 160, 3-[4-(2-{3-[5-tert-butyl-2-(3-chloro-4-hydroxy-phenyl)-2H-pyrazol-3-yl]-ureidomethyl}-benzyloxy)-3-chloro-6-methyl-2-oxo-2H-pyridin-1-yl]-N-carbamoylmethyl-4-methyl-benzamide], the melting point is 228 to 230 °C. Regarding `CNC(=O)c1ccc(C)c(-n2c(C)cc(OCc3ccccc3CNC(=O)Nc3cc(C(C)(C)C)nn3-c3ccc(Cl)c(O)c3)c(Cl)c2=O)c1` [Example 161, 3-[4-(2-{3-[5-tert-butyl-2-(4-chloro-3-hydroxy-phenyl)-2H-pyrazol-3-yl]-ureidomethyl}-benzyloxy)-3-chloro-6-methyl-2-oxo-2H-pyridin-1-yl]-4,N-dimethyl-benzamide], the melting point lay in the range of 201 to 203 °C. Turning to `Cc1ccc(C(=O)NCCO)cc1-n1c(C)cc(OCc2ccccc2CNC(=O)Nc2cc(C(C)(C)C)nn2-c2ccc(Cl)c(O)c2)c(Cl)c1=O` [Example 162, 3-[4-(2-{3-[5-tert-butyl-2-(4-chloro-3-hydroxy-phenyl)-2H-pyrazol-3-yl]-ureidomethyl}-benzyloxy)-3-chloro-6-methyl-2-oxo-2H-pyridin-1-yl]-N-(2-hydroxy-ethyl)-4-methyl-benzamide], the melting point lay within 196 to 197 °C. `COCCNC(=O)c1ccc(C)c(-n2c(C)cc(OCc3ccccc3CNC(=O)Nc3cc(C(C)(C)C)nn3-c3ccc(Cl)c(O)c3)c(Cl)c2=O)c1` [Example 163, 3-[4-(2-{3-[5-tert-butyl-2-(4-chloro-3-hydroxy-phenyl)-2H-pyrazol-3-yl]-ureidomethyl}-benzyloxy)-3-chloro-6-methyl-2-oxo-2H-pyridin-1-yl]-N-(2-methoxy-ethyl)-4-methyl-benzamide] came in with a melting point of 182 to 183 °C. In the case of `COCCNC(=O)c1ccc(C)c(-n2c(C)cc(OCc3ccc(F)cc3CNC(=O)Nc3cc(C(C)(C)C)nn3-c3ccc(Cl)c(O)c3)c(Cl)c2=O)c1` [Example 164, 3-[4-(2-{3-[5-tert-butyl-2-(4-chloro-3-hydroxy-phenyl)-2H-pyrazol-3-yl]-ureidomethyl}-4-fluoro-benzyloxy)-3-chloro-6-methyl-2-oxo-2H-pyridin-1-yl]-N-(2-methoxy-ethyl)-4-methyl-benzamide] it was 186 to 187 °C.

Consider `Cc1ccc(C(=O)NCCN(C)C)cc1-n1c(C)cc(OCc2ccccc2CNC(=O)Nc2cc(C(C)(C)C)nn2-c2ccc(Cl)c(O)c2)c(Cl)c1=O` [Example 165, 3-[4-(2-{3-[5-tert-butyl-2-(4-chloro-3-hydroxy-phenyl)-2H-pyrazol-3-yl]-ureidomethyl}-benzyloxy)-3-chloro-6-methyl-2-oxo-2H-pyridin-1-yl]-N-(2-dimethylamino-ethyl)-4-methyl-benzamide], for which the melting point was in the range of 185 to 186 °C. Consider `Cc1ccc(C(=O)NCCN(C)C)cc1-n1c(C)cc(OCc2ccc(F)cc2CNC(=O)Nc2cc(C(C)(C)C)nn2-c2ccc(Cl)c(O)c2)c(Cl)c1=O` [Example 166, 3-[4-(2-{3-[5-tert-Butyl-2-(4-chloro-3-hydroxy-phenyl)-2H-pyrazol-3-yl]-ureidomethyl}-4-fluoro-benzyloxy)-3-chloro-6-methyl-2-oxo-2H-pyridin-1-yl]-N-(2-dimethylamino-ethyl)-4-methyl-benzamide], for which the melting point was in the range of 177 to 178 °C. In the case of `Cc1ccc(C(=O)NCC(O)CO)cc1-n1c(C)cc(OCc2ccccc2CNC(=O)Nc2cc(C(C)(C)C)nn2-c2ccc(Cl)c(O)c2)c(Cl)c1=O` (stereo not drawn) [Example 168, 3-[4-(2-{3-[5-tert-Butyl-2-(4-chloro-3-hydroxy-phenyl)-2H-pyrazol-3-yl]-ureidomethyl}-benzyloxy)-3-chloro-6-methyl-2-oxo-2H-pyridin-1-yl]-N-(2,3-dihydroxy-propyl)-4-methyl-benzamide] it was 169 to 171 °C.
